Laboratory results reported in patent US9233127B2, “Compositions and methods for CXCR4 signaling and umbilical cord blood stem cell engraftment” (University of Virginia Patent Foundation, priority 2012, dated 2016).
Entries after “also recorded” stand apart in the source; their conditions may differ.

Columns and labels:
UCB CD34+ cells [1] = assay: Transwell chemotaxis of UCB CD34+ cells to SDF-1 (priming); type: cell-based, human
Experimental: FIG. 11A-B—Effect of SLP and its components on chemotaxis of CD34^+ cells. Panel A: Chemotaxis of BM CD34^+ cells towards medium alone (control), SDF-1 low (10 ng/mL) alone, SLP (combined SLP from three patients), SDF-1 low+SLP, and SDF-1 high (300 ng/mL). Data are pooled from quadruplicate samples from three independent experiments. *p<0.00001. Panel B: Chemotaxis of UCB CD34^+ cells to medium alone (control), SDF-1 low (10 ng/mL) alone and SDF-1 low (10 ng/mL)+uPAR (1 μg/mL) or +ICAM (1 μg/mL) or +VCAM (1 μg/mL) or +FN (2 μg/mL), or +FG (4 μg/mL) or +C3a (1 μg/mL). Data are pooled from quadruplicate samples from three independent experiments. * p<0.00001.
An increased migration of UCB-derived CD34^+ cells, as compared to BM and mPB CD34^+ cells was reported in transwell migration assays was previously reported. However, we noticed large inter-individual differences in the in vitro migratory ability of UCB CD34^+ cells, ranging from 1.1% to 14.3% for spontaneous migration and 3.1% to 62.3% for SDF-1-induced (300 ng/mL) migration. The lower migratory capacity in vitro of UCB-derived CD34^+ cells was not due to lower expression of CXCR4, but likely reflects the decreased migratory behavior of these cells. […] Based on this, we postulate that UCB HSPC responsiveness to an SDF-1 gradient varies with each collected UCB unit and that, in cases when responsiveness is low, UCB HSPCs should be identified and primed before infusion.
Moreover, as SLP contains several components that potentially could prime the responses of CD34^+ cells, (Example 2, FIG. 11, panel B) the most important being PMV and activated complement proteins such as anaphylatoxin C3a, soluble VCAM-1, soluble ICAM-1, uPAR, FG, and FN, we evaluated whether these factors could induce the chemotaxis of HSPCs when used alone. […] We also examined whether FG, FN, soluble VCAM-1, soluble ICAM-1, uPAR, and C3a prime HSPCs in their responses to SDF-1. […] To determine whether this also affects UCB CD34^+ clonogenic progenitors, UCB CD34^+ cells were collected from the lower chambers after the chemotaxis assay and plated in methylcellulose cultures. […] Moreover, a similar effect for the established hematopoietic cell lines Molt 4, Nalm-6, and THP-1 was also found (data not shown).

CXCR4 [2] = assay: FACS analysis of CXCR4 expression on BM or UCB CD34+ cells; type: cell-based, human; parameters: dose or concentration left out as unconfirmed; conditions: 0, 12, and 24 hrs
Description: (§1) In another set of experiments, we attempted to elucidate the molecular mechanisms by which C3a enhances the responsiveness of hematopoietic cells to an SDF-1 gradient. […] However, we observed that actin polymerization of CD34^+ cells to a low dose of SDF-1 was enhanced in the presence of C3a.

UCB CD34+ cells [3] = assay: Actin polymerization in CD34+ cells; type: cell-based, human; conditions: in the presence of C3a
Description: Exposure of UCB CD34^+ cells to a low dose of SDF-1 promotes actin polymerization which is enhanced by the presence of C3a.
as §1

[4] = tested on: human umbilical vein endothelial cells; assay: Adhesion of UCB CD34+ cells to endothelial cells; type: cell-based
CXCR4 [5] = assay: CXCR4 incorporation into membrane lipid rafts of UCB CD34+ HSC; type: cell-based, human; conditions: short-term (15-30 min) exposure to C3a
Experimental: FIG. 14—Priming effect depends on inclusion of CXCR4 into membrane lipid rafts. […] comprises three rows and three columns of images of micrographs. Lipid raft formation on normal human UCB-derived CD34^+ cells not stimulated (control) or stimulated with C3a or desArgC3a. For visualization of lipid rafts, CD34^+ cells were fixed in 3.7% paraformaldehyde/Ca- and Mg-free PBS for 15 min and permeabilized by Triton X-100 in PBS for 5 min at room temperature (RT). The primary antibodies used for raft analysis are cholera toxin B-subunit conjugated with Fluorescein Isothiocyanate (FITC) (Sigma Aldrich, St. Louis, Mo.) and mouse monoclonal anti-hCXCR4 immunoglobulin (Ig)G (R&D Systems, Minneapolis, Minn.). After rinsing in phosphate-buffered saline (PBS), the sections were incubated with Alexa Fluor 568 goat anti-mouse IgG (Molecular Probes, Eugene, Oreg.) for 45 min.

[6] = tested on: UCB MNC and CD4+45RA+ T-cells; assay: Transmigration of UCB MNC and CD4+/45RA+ T-cells to SDF-1 without and with C3a priming; type: cell-based, human; conditions: C3a 1 μg/ml 30 minutes; SDF-1 10 ng/ml, 3 h
Experimental: FIG. 30A-B—UCB MNC migration to SDF-1. Lymphocytes from SSC/FSC plots were gated to determine the number of transmigrating UCB CD45^+CD4^+ T-cells. A. The total number of transmigrated lymphocytes migrating without and with C3a priming prior to exposure to 10 ng/ml SDF-1 (mean±SD). […] All staining patterns of labeled cells were compared to cells incubated with APC- and PerCP-isotype antibodies to set negative quadrants gates.
FIG. 31A-B—UCB CD4^+45RA T-cell migration to SDF-1. […] A. Percentage of selected CD4^+/45RA^+ T-cells transmigrating without and with C3a priming prior to exposure to 10 ng/ml SDF-1 (mean±SD). B. CD45^+CD4^+ T-cells were observed only in gate P3 in contrast to the transmigration of MNC.
Cord blood MNC (FIG. 30A-B) isolated by Ficoll density gradient centrifugation or naïve CD4^+/45RA^+ T-cells (FIG. 31A-B below), isolated from MNC fractions (Miltenyi), were incubated in DMEM media with 1% human serum albumin or exposed to complement protein C3a (1 μg/ml) for 30 minutes at RT. […] Transmigrated cells were counted (Z Series Coulter counter) and stained with anti-CD4-PerCP anti-CD45-APC antibodies for 20 min in PBS buffer with 10% FBS prior to flow cytometric analyses on a […] in […], cells were fixed in 2% paraformaldehyde prior to acquisition. […]

UCB MNC = assay: In vitro migration assay UCB (CD34+ HSC enumerated by FACS); type: cell-based, human; conditions: C3a 1 ug/ml; 3 h chemotaxis assay
Experimental: FIG. 52—In Vitro Migration Assay UCB. UCB MNC are loaded in the top chamber and the number of CD34^+ HSC present after the 3 h chemotaxis assay in the lower chambers from trans-wells are enumerated by FACS.

C3a: 77 amino acid residue protein derived from the human complement C3a precursor; SEQ ID NO:1
SDF-1-mediated transwell cell migration of C3a primed UCB CD34+ HSC (UCB CD34+ cells [1]): enhanced | responsiveness of UCB cells to SDF-1 gradient (UCB CD34+ cells [1]; UCB-derived CD34+ cells exposed/primed): significantly increase the responsiveness | chemotactic response of UCB CD34+ cells to SDF-1 (UCB CD34+ cells [1]; added to lower chambers with SDF-1 10 ng/mL, uPAR, ICAM, VCAM, C3a 1 μg/mL, FN 2 μg/mL, FG 4 μg/mL): increased the chemotactic response | induction of chemotaxis of HSPCs when used alone (UCB CD34+ cells [1]; without SDF-1): no evidence that they did | CXCR4 expression after C3a exposure (CXCR4 [2]): not enhanced; also recorded: negative results | actin polymerization of CD34+ cells to a low dose of SDF-1 (UCB CD34+ cells [3]): enhanced | adhesion of UCB CD34+ cells to human umbilical vein endothelial cells ([4]; C3a): increases adhesion | adhesion of CD34+ cells ([4]; combination of C3a priming and SDF-1): only to a slight increase | CXCR4 incorporation into membrane lipid rafts (CXCR4 [5]): enhances CXCR4 incorporation | migration of UCB MNC or naïve CD45+ CD4+ cells to a low SDF-1 gradient [6]: prime migration of a portion of the cell populations | rates of UCB chemotaxis in vitro (UCB MNC): significantly higher rates
